Several values for one entry are separate records, joined by “and”; a condition that tells them apart may be missing. Equal values may be shown once. Toxic doses and inconclusive results are not listed. Cut-off read from the data, not from the text of the source: active = T/C of 150% or more; inactive = T/C below 125%.
Tested on: L1210 leukemia ip in BDF1 mice, survival T/C
Test: NCI In Vivo Anticancer Drug Screen. Data for tumor model L1210 Leukemia (intraperitoneal) in B6D2F1 (BDF1) mice
Settings: endpoint: mean survival time, higher = longer survival
How it was run: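 In this screen, tumor-bearing mice given compound are compared to those given vehicle, and their survival values are reported as a treated-to-control quotient.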

[1] = dose: 100.0 mg/kg/injection, schedule: Q04DX002 (ip), vehicle: Klucel (hydroxypropylcellulose) (HPC)
[2] = dose: 200.0 mg/kg/injection, schedule: Q04DX002 (ip), vehicle: Klucel (hydroxypropylcellulose) (HPC)
[3] = dose: 400.0 mg/kg/injection, schedule: Q04DX002 (ip), vehicle: Klucel (hydroxypropylcellulose) (HPC)
[4] = dose: 100.0 mg/kg/injection, schedule: Q04DX003 (ip), vehicle: Klucel (hydroxypropylcellulose) (HPC)
[5] = dose: 200.0 mg/kg/injection, schedule: Q04DX003 (ip), vehicle: Klucel (hydroxypropylcellulose) (HPC)
[6] = dose: 400.0 mg/kg/injection, schedule: Q04DX003 (ip), vehicle: Klucel (hydroxypropylcellulose) (HPC)
[7] = dose: 100.0 mg/kg/injection, schedule: Q01DX009 (ip), vehicle: Klucel (hydroxypropylcellulose) (HPC)
[8] = dose: 200.0 mg/kg/injection, schedule: Q01DX009 (ip), vehicle: Klucel (hydroxypropylcellulose) (HPC)
[9] = dose: 400.0 mg/kg/injection, schedule: Q01DX009 (ip), vehicle: Klucel (hydroxypropylcellulose) (HPC)
[10] = dose: 100.0 mg/kg/injection, schedule: Q01DX001 (ip), vehicle: saline
[11] = dose: 200.0 mg/kg/injection, schedule: Q01DX001 (ip), vehicle: saline
[12] = dose: 400.0 mg/kg/injection, schedule: Q01DX001 (ip), vehicle: saline
[13] = dose: 100.0 mg/kg/injection, schedule: Q04DX003 (ip), vehicle: saline
[14] = dose: 200.0 mg/kg/injection, schedule: Q04DX003 (ip), vehicle: saline
[15] = dose: 400.0 mg/kg/injection, schedule: Q04DX003 (ip), vehicle: saline
[16] = dose: 100.0 mg/kg/injection, schedule: Q01DX009 (ip), vehicle: saline with Tween-80
[17] = dose: 200.0 mg/kg/injection, schedule: Q01DX009 (ip), vehicle: saline with Tween-80
[18] = dose: 400.0 mg/kg/injection, schedule: Q01DX009 (ip), vehicle: saline with Tween-80
[19] = dose: 50.0 mg/kg/injection, schedule: Q01DX001 (ip), vehicle: saline
[20] = dose: 100.0 mg/kg/injection, schedule: Q01DX001 (ip), vehicle: other
[21] = dose: 200.0 mg/kg/injection, schedule: Q01DX001 (ip), vehicle: other
[22] = dose: 400.0 mg/kg/injection, schedule: Q01DX001 (ip), vehicle: other
[23] = dose: 100.0 mg/kg/injection, schedule: Q04DX003 (ip), vehicle: saline with Tween-80
[24] = dose: 200.0 mg/kg/injection, schedule: Q04DX003 (ip), vehicle: saline with Tween-80
[25] = dose: 400.0 mg/kg/injection, schedule: Q04DX003 (ip), vehicle: saline with Tween-80

Measured: T/C

O=C1CC(C(Cl)(Cl)Cl)O1 (stereo not drawn)
inactive: [1] 89 % of control | [2] 92 % of control | [3] 106 % of control

C=CCc1c(C)nc(N)[nH]c1=O
inactive: [4] 104 % of control | [5] 107 % of control | [6] 102 % of control

BrCCCc1ccccc1
inactive: dose: 75.0 mg/kg/injection, schedule: Q01DX001 (ip), vehicle: saline 95 % of control | dose: 150.0 mg/kg/injection, schedule: Q01DX001 (ip), vehicle: saline 97 % of control

CC(C)(C)C(=O)CC(=O)C(C)(C)C.CC(C)(C)C(=O)CC(=O)C(C)(C)C.CC(C)(C)C(=O)CC(=O)C(C)(C)C.[Al]
inactive: [7] 91 % of control | [4] 91 % of control | [8] 94 % of control | [5] 94 % of control | [9] 97 % of control | [6] 95 % of control

CNc1cc(N2CCCC2)ccn1
inactive: dose: 5.0 mg/kg/injection, schedule: Q01DX001 (ip), vehicle: saline 104 % of control | dose: 10.0 mg/kg/injection, schedule: Q01DX001 (ip), vehicle: saline 110 % of control

O=P(NCCCO)(Oc1ccccc1)N(CCCl)CCCl (stereo not drawn)
inactive: dose: 125.0 mg/kg/injection, schedule: Q01DX Z (ip), vehicle: saline 95 % of control | dose: 250.0 mg/kg/injection, schedule: Q01DX Z (ip), vehicle: saline 102 % of control | dose: 500.0 mg/kg/injection, schedule: Q01DX Z (ip), vehicle: saline 102 % of control

OCCCCOc1ccccc1
inactive: [10] 105 % of control | [11] 100 % of control | [12] 96 % of control

CCOC1(OCC)CS(=O)(=O)C1
inactive: dose: 25.0 mg/kg/injection, schedule: Q01DX009 (ip), vehicle: saline sonified 100 % of control | dose: 50.0 mg/kg/injection, schedule: Q01DX009 (ip), vehicle: saline sonified 95 % of control | dose: 100.0 mg/kg/injection, schedule: Q01DX009 (ip), vehicle: saline sonified 106 % of control | [13] 109 % of control | [14] 117 % of control | [15] 112 % of control

O=C(Nc1ccccc1)OCC1CC2CCC1C2 (stereo not drawn)
inactive: [7] 96 % of control | [4] 95 % of control | [8] 94 % of control | [5] 93 % of control | [9] 96 % of control | [6] 93 % of control

CSc1ccc(Sc2cccc3c2C(=O)c2c(cccc2Sc2ccc(SC)cc2)C3)cc1
inactive: [16] 90 % of control | [17] 92 % of control | [18] 103 % of control

COc1cc(CN)cc(OC)c1OC
inactive: [19] 100 % of control | [10] 96 % of control | [11] 96 % of control | [12] 100 % of control

O=C(COc1ccccc1)NC(=S)Nc1ccc(F)c([N+](=O)[O-])c1
inactive: dose: 100.0 mg/kg/injection, schedule: Q01DX001 (ip), vehicle: saline with Tween-80 113 % of control | [16] 100 % of control and 86 % of control | dose: 100.0 mg/kg/injection, schedule: Q04DX002 (ip), vehicle: saline with Tween-80 94 % of control and 119 % of control | dose: 200.0 mg/kg/injection, schedule: Q01DX001 (ip), vehicle: saline with Tween-80 98 % of control | [17] 99 % of control and 116 % of control | dose: 200.0 mg/kg/injection, schedule: Q04DX002 (ip), vehicle: saline with Tween-80 102 % of control and 103 % of control | dose: 400.0 mg/kg/injection, schedule: Q01DX001 (ip), vehicle: saline with Tween-80 95 % of control | [18] 102 % of control | dose: 400.0 mg/kg/injection, schedule: Q04DX002 (ip), vehicle: saline with Tween-80 104 % of control and 87 % of control

CC1(C)C(=NO)C(C)(C)C1=NO
inactive: dose: 12.5 mg/kg/injection, schedule: Q01DX009 (ip), vehicle: Klucel (hydroxypropylcellulose) (HPC) 105 % of control | dose: 12.5 mg/kg/injection, schedule: Q04DX003 (ip), vehicle: Klucel (hydroxypropylcellulose) (HPC) 108 % of control | dose: 25.0 mg/kg/injection, schedule: Q01DX009 (ip), vehicle: Klucel (hydroxypropylcellulose) (HPC) 106 % of control | dose: 50.0 mg/kg/injection, schedule: Q04DX003 (ip), vehicle: Klucel (hydroxypropylcellulose) (HPC) 104 % of control

O=S(=O)(Cc1ccccc1)C(Br)Br
inactive: [20] 106 % of control | [1] 100 % of control | [21] 101 % of control | [2] 97 % of control | [22] 101 % of control | [3] 103 % of control

CCC(=O)Nc1ccccc1
inactive: [7] 101 % of control | [4] 100 % of control | [8] 95 % of control | [5] 104 % of control | [9] 108 % of control | [6] 114 % of control

O=C(NCCc1nc(C(=O)O)cs1)c1ccccc1
inactive: [20] 98 % of control | dose: 100.0 mg/kg/injection, schedule: Q01DX009 (ip), vehicle: gum acacia 99 % of control | dose: 100.0 mg/kg/injection, schedule: Q04DX003 (ip), vehicle: gum acacia 103 % of control | [21] 101 % of control | dose: 200.0 mg/kg/injection, schedule: Q04DX003 (ip), vehicle: gum acacia 98 % of control | [22] 102 % of control | dose: 400.0 mg/kg/injection, schedule: Q04DX003 (ip), vehicle: gum acacia 97 % of control

COC(=O)COc1ccc2ccccc2c1Cl
inactive: [1] 86 % of control | [2] 99 % of control | [3] 96 % of control

CC[N+](CC)(CC)CCCNC(c1ccccc1)C(Cl)(Cl)Cl (stereo not drawn)
inactive: dose: 12.5 mg/kg/injection, schedule: Q01DX001 (ip), vehicle: saline 95 % of control | dose: 25.0 mg/kg/injection, schedule: Q01DX001 (ip), vehicle: saline 97 % of control | [19] 95 % of control

Fc1c(Cl)c(F)c(Cl)c(F)c1Cl
inactive: dose: 100.0 mg/kg/injection, schedule: Q01DX001 (ip), vehicle: carboxymethylcellulose (CMC) 94 % of control | dose: 200.0 mg/kg/injection, schedule: Q01DX001 (ip), vehicle: carboxymethylcellulose (CMC) 97 % of control | dose: 400.0 mg/kg/injection, schedule: Q01DX001 (ip), vehicle: carboxymethylcellulose (CMC) 94 % of control

CC12CC3CC(C1)CC(C(=O)O)(C3)C2
inactive: dose: 100.0 mg/kg/injection, schedule: Q01DX009 (ip), vehicle: saline 110 % of control | [13] 97 % of control | dose: 200.0 mg/kg/injection, schedule: Q01DX009 (ip), vehicle: saline 100 % of control | [14] 97 % of control | [15] 101 % of control

CC[N+]1(C)CCC(CN2c3ccccc3Sc3ccccc32)C1 (stereo not drawn)
inactive: [23] 100 % of control | [24] 103 % of control | [25] 100 % of control

Oc1ccccc1C=Nc1ccc(I)cc1.Oc1ccccc1C=Nc1ccc(I)cc1.[Co]
inactive: [23] 96 % of control | [24] 108 % of control | [25] 102 % of control

Reference: PubChem BioAssay AID248 (DTP/NCI, 2004)
